# Measurements from patent US20250129130A1, “USE OF VARIOVORAX MICROBES AS AN ALTERNATIVE TREATMENT FOR COCCIDIOSIS” (ZIVO BIOSCIENCE, INC., priority 2020, published 2025).
# How the values were obtained:
# [1] = tested on: E. acervuline, E. maxima, E. tenella oocysts; assay: Study No. 3: floor-pen broiler performance and digestive health under cocci-challenge + built-up litter; settings: Coban 90 g/ton, Inventive Compound 125 g/ton
# [2] = target: T1, TLR4 (Homo sapiens, UniProt O00206+Q9Y6Y9); settings: Phase 2 multiple sclerosis trial, versus placebo; cited from earlier work
# [3] = target: T1, TLR4; settings: severe sepsis; cited from earlier work
# [4] = tested on: mixed E. acervulina, E. maxima, and E. tenella coccidial inoculum; assay: Study No. 1: anticoccidial efficacy in feed, battery-cage broilers, mixed Eimeria challenge; format: in vivo, male broiler chickens; settings: Salinomycin 60 g/t
# Excerpt: A non-limiting example of a method for the improvement of growth efficiency in broiler chickens exposed to a coccidiosis disease challenge is set forth.
# The study animals were chickens, specifically male broiler chickens. Day of hatch male broiler chicks were obtained. At the hatchery, the birds were sexed. Sets of ten chicks were randomly selected, group weighed and placed into cages. The number and disposition of all birds not used for allocation were documented. No birds were replaced during the course of the study. There were 80 birds per treatment group.
# The poultry cages were blocked by location in the battery with block size equal to treatments. The study began when the birds, specifically broiler chickens, were placed on the day of hatch (DOT 0) at which time they were allocated to the experimental cages. Only healthy birds were selected. At placement the birds were fed the treatment feeds. Thermostatically controlled gas furnace/air conditioner maintained uniform temperature in the cages.
# An un-medicated commercial type chicken starter compounded with feedstuffs commonly used in the United States was formulated. The diet was an all-vegetable feed having no antibiotics, organic acid, NSP enzyme, or direct fed microbial. This ration was fed ad libitum from the date of chick arrival until Day 28 of the study. The diet formulation was included in the source data. Experimental treatment feeds were prepared from this basal starter feed. Quantities of all basal feed and test articles used to prepare treatment batches were documented.
# All birds were weighed by cage on DOT 0, 14, 20 and 28. Feed was weighed in on DOT 0. The remaining feed was weighed on DOT 14, 20, and 28.
# Coccidial oocysts inoculation procedures were carried out. On Day 14 of the study, all birds except T1 orally received a mixed E. acervulina, E. maxima, and E. tenella coccidial inoculum diluted to a 1.0 ml volume (p.o.). Inoculum level attempted to produce a moderate challenge.
# On DOT 20, a select number of birds from each cage were selected, sacrificed, weighed, and examined for the degree of presence of coccidia lesions. The Johnson and Reid (1970) method of coccidiosis lesion scoring was used to score the infected region(s) of the intestine. The scoring was based on a 0 to 4 score, with 0 being normal and 4 being the most severe. Also on Day 20 mixed feces were collected from each cage. Each sample was examined for the number of oocysts per gram fecal material by fecal floatation.
# STUDY NO. 1—ANALYSIS METHODOLOGY Means for cage weight gain, feed consumption, feed conversion, lesion scores, oocyst counts (OPGs), and mortality were calculated.
# [5] = DAY 0-20, infected Day 14, Inventive Compound 0.551%
# [6] = DAY 0-28, infected Day 14, Inventive Compound 0.551%
# [7] = DAY 14 (before challenge), Inventive Compound 0.551% in feed
# [8] = DAY 14-20, infected Day 14, Inventive Compound 0.551%
# [9] = DAY 14-28, infected Day 14, Inventive Compound 0.551%
# [10] = DOT 20, Johnson and Reid 0 to 4 score, Inventive Compound 0.551%
# [11] = Day 20 mixed feces, fecal floatation, Inventive Compound 0.551%
# T1 sequence (O00206 24-839): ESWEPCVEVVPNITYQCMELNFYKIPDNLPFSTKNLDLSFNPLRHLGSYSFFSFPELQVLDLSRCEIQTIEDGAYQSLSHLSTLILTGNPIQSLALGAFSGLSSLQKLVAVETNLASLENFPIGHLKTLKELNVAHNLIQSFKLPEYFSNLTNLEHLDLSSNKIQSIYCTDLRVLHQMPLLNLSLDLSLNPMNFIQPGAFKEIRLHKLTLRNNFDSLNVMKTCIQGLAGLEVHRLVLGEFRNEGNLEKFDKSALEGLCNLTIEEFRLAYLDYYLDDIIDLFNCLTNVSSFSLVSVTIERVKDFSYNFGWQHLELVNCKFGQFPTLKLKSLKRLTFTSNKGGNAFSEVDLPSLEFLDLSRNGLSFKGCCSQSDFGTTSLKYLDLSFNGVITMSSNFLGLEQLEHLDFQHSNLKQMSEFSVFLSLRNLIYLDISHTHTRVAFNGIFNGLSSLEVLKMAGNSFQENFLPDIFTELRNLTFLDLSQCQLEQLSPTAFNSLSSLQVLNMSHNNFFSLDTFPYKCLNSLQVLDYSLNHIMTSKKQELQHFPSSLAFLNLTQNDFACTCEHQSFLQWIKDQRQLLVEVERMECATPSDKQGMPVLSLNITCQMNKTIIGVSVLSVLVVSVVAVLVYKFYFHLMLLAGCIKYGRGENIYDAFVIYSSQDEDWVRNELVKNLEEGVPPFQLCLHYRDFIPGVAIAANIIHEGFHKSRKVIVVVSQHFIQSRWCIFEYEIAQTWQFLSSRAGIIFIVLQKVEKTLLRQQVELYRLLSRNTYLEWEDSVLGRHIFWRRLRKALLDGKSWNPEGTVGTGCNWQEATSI
# T1 sequence (Q9Y6Y9 17-160 limits assumed): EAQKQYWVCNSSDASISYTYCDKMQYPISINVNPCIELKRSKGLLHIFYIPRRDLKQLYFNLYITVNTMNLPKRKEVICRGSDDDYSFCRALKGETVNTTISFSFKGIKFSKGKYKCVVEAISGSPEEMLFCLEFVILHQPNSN
smiles,measurement,setting,value
"CC[C@@]1([C@@H]2O[C@@H]([C@H]3O[C@@](O)(CO)[C@H](C)C[C@@H]3C)C[C@@H]2C)CC[C@H]([C@]2(C)CC[C@]3(C[C@H](O)[C@@H](C)[C@@H]([C@@H](C)[C@@H](OC)[C@H](C)C(=O)O)O3)O2)O1 [Coban, Monensin, USP]",% Mortality,"[1]; DAY 0-14, challenge Day 7",0.833a %
same,Avg Body Weight (g),"[1]; DAY 0-14, challenge Day 7",496.13a g
same,FCR,"[1]; DAY 0-14, challenge Day 7",1.112ab
same,Feed Intake (g/bird/day),"[1]; DAY 0-14, challenge Day 7",34.680b g/bird/day
same,% Mortality,[1]; DAY 0-21,1.563a %
same,Avg Body Weight (g),[1]; DAY 0-21,951.80a g
same,FCR,[1]; DAY 0-21,1.151a
same,Feed Intake (g/bird/day),[1]; DAY 0-21,54.811a g/bird/day
same,% Mortality,[1]; DAY 0-28,1.563a %
same,Avg Body Weight (g),[1]; DAY 0-28,1535.00a g
same,FCR,[1]; DAY 0-28,1.387a
same,Feed Intake (g/bird/day),[1]; DAY 0-28,78.960c g/bird/day
same,% Mortality,[1]; DAY 15-21,0.729a %
same,Avg Body Weight (g),[1]; DAY 15-21,445.167a g
same,FCR,[1]; DAY 15-21,1.244ab
same,Feed Intake (g/bird/day),[1]; DAY 15-21,77.988a g/bird/day
same,% Mortality,[1]; DAY 22-28,0.000a %
same,Avg Body Weight (g),[1]; DAY 22-28,583.217a g
same,FCR,[1]; DAY 22-28,1.825a
same,Feed Intake (g/bird/day),[1]; DAY 22-28,151.410c g/bird/day
same,DAY 14 Avg Lesion Score Ceca,[1]; Day 14,0.292a
same,DAY 14 Avg Lesion Score Duodenum,[1]; Day 14,0.375b
same,DAY 28 Avg Lesion Score Ceca,[1]; Day 28,0.229a
same,DAY 28 Avg Lesion Score Duodenum,[1]; Day 28,0.208a
CC(C)C(=O)c1c(C(C)C)nn2ccccc12 [Ibudilast],"rates of gastrointestinal side effects, headache, and depression",[2],higher rates
CCOC(=O)C1=CCCC[C@H]1S(=O)(=O)Nc1ccc(F)cc1Cl [Resatorvid],mortality in Phase 3 clinical trials,[3],failed to reduce mortality
CC[C@@H](C(=O)[C@@H](C)[C@@H](O)[C@H](C)[C@@H]1O[C@@H]([C@@H](CC)C(=O)O)CC[C@@H]1C)[C@H]1O[C@]2(C=C[C@@H](O)[C@]3(CC[C@@](C)([C@H]4CC[C@](O)(CC)[C@H](C)O4)O3)O2)[C@H](C)C[C@@H]1C [Salinomycin],FCR,[4]; [5],1.597bc
same,Feed Intake,[4]; [5],5.433a
same,Wt. Gain,[4]; [5],0.360b
same,FCR,[4]; [6],1.625bc
same,Feed Intake,[4]; [6],5.918a
same,Wt. Gain,[4]; [6],0.376b
same,FCR,[4]; [7],1.156a
same,Feed Intake,[4]; [7],2.384a
same,Wt. Gain,[4]; [7],0.218a
same,FCR,[4]; [8],1.744b
same,Feed Intake,[4]; [8],3.049a
same,Wt. Gain,[4]; [8],0.185b
same,FCR,[4]; [9],1.766c
same,Feed Intake,[4]; [9],3.534a
same,Wt. Gain,[4]; [9],0.202b
same,Lesion Scores Avg.,[4]; [10],1.3c
same,Lesion Scores Eimeria acervulina,[4]; [10],2.1c
same,Lesion Scores Eimeria maxima,[4]; [10],0.9c
same,Lesion Scores Eimeria tenella,[4]; [10],0.7c
same,Oocysts per Gram Fecal Material Avg.,[4]; [11],9722b
same,Oocysts per Gram Fecal Material Eimeria acervulina,[4]; [11],4511a
same,Oocysts per Gram Fecal Material Eimeria maxima,[4]; [11],484b
same,Oocysts per Gram Fecal Material Eimeria tenella,[4]; [11],4727c
